Calls of active or inactive are those of the source. The calls are words filed in the database; no cut-off is given here.

One test relates to HCT-116. Description: Induction of apoptosis in human HCT116 cells assessed as early apoptotic cells at 150 uM after 24 hrs by annexin V-FITC/propidium iodide staining-based flow cytometry (reference value: 3.61%). Format: functional.
The test system of another test is AGS. The test can be described thus: Induction of apoptosis in human AGS cells assessed as increase in FasL level at 25 to 150 uM after 24 hrs by Western blotting analysis. The format is functional, cell-based.

On to `CC(C)=C[C@H]1C[C@](C)(O)[C@@H]2[C@H]3CC[C@@H]4[C@@]5(C)CC[C@H](O[C@@H]6OC[C@H](O)[C@H](O[C@@H]7O[C@H](CO)[C@@H](O)[C@H](O)[C@H]7O[C@@H]7OC[C@@H](O)[C@H](O)[C@H]7O)[C@H]6O[C@@H]6O[C@@H](C)[C@H](O)[C@@H](O)[C@H]6O)C(C)(C)[C@@H]5CC[C@@]4(C)[C@@]34CO[C@@]2(C4)O1`, for which the Activity in the test on HCT-116 came to 43.39%. In addition, the result with AGS was Active.

Values taken from ChEMBL document CHEMBL3108668, “Antitumor activity of jujuboside B and the underlying mechanism via induction of apoptosis and autophagy” (J Nat Prod, 2014).
